Patent US20120196899A1, “METHODS AND PRODUCTS FOR TREATING INFLAMMATION” (Rock Creek Pharmaceuticals, Inc., priority 2010, published 2012)

Settings: nicotine 1.25 mg/kg (1 female) and 1.0 mg/kg (3 females) single i.v.
Procedure: One control group of animals received a single i.v. dose of the vehicle at 5 mL/kg. Ten rats (5 males and 5 females) were dosed per group. […] One female received a single i.v. dose of 1.25 mg/kg, and 3 females received a single i.v. dose of 1.0 mg/kg.
Following the tolerability study, an additional group was added to the study. […] All animals were observed daily. Body weight and food consumption was measured daily, with any abnormal observations noted. Average daily body weights and food consumption was tabulated with standard deviation calculated.

SMILES: CN1CCCC1c1cccnc1.O=C(O)C(O)C(O)C(=O)O (single isomer, unassigned; (-)) [Nicotine, (−) Nicotine hydrogen tartrate, reference compound]
- clinical signs in tolerability study: experienced severe tremors upon completion of dosing, but all returned to normal by 20 minutes post dose
